Square brackets hold non-standard residues; d marks the D form. Peptide text beside a SMILES is read from it.
Experiment: Peptide stability in 50% human serum (RP-HPLC time course)
Assay type: in vitro ADME
Details: 50% aqueous human serum, 37 °C, time points 0, 30 (35), 120 min, RP-HPLC peak area at 220 nm, triplicate
Protocol: D-amino acids are more resistant to protease degradation. In order to verify the effect of D-amino acid replacement on QK stability in serum, we performed a time-course analysis. Peptides were incubated with 50% diluted human serum and analyzed by RP-HPLC at three different times (0′, 35′ and 120′). The area of the chromatographic peak corresponding to the entire peptide was determined (Figure 6). Overall, peptide QK presents fairly good stability in 50% serum, as almost the 50% is still present after […] of incubation.
Figure 6 Analysis of peptide stability in 50% human serum. […] Data are reported as means of a triplicate experiment.
Briefly, 20 µL of peptide (10 mg/mL stock solution in H2O) were added to 200 µL of 50% aqueous solution of human serum (Sigma-Aldrich) (previously centrifuged at 10,000 rpm for 10 min at 4 °C) and the mixture was incubated at 37 °C. At each time point (0, 30, 120 min), an aliquot of 6 µL was diluted in a ten times volume of H2O and analyzed by RP-HPLC on an Atlantis C18-column (Waters, 5 µm, 4.6 mm × 150 mm) using a linear aqueous acetonitrile gradient containing TFA (0.1%, v/v). Initial condition 5% B, 5−5% B in 5 min, 5−40% B in 27 min, 40−100% B in 5 min, and flow rate 1 mL/min (B = acetonitrile 0.1% TFA). Peptides were detected by recording the absorbance at 220 nm and quantified by their peak areas relative to the initial peak areas (0 min). […]

## CC[C@H](C)[C@H](NC(=O)CNC(=O)[C@H](CCCCN)NC(=O)[C@H](Cc1ccc(O)cc1)NC(=O)[C@H](CCCCN)NC(=O)[C@H](CC(C)C)NC(=O)[C@H](CCC(N)=O)NC(=O)[C@H](Cc1ccc(O)cc1)NC(=O)[C@H](CC(C)C)NC(=O)[C@H](CCC(=O)O)NC(=O)[C@H](CCC(N)=O)NC(=O)[C@H](Cc1c[nH]c2ccccc12)NC(=O)[C@H](NC(=O)[C@@H](CC(C)C)NC(=O)[C@@H](CCCCN)NC(C)=O)[C@H](C)O)C(N)=O [D-QK, Ac-^DLys-^DLeu-^DThr-Trp-Gln-Glu-Leu-Tyr-Gln-Leu-Lys-Tyr-Lys-Gly-Ile-NH2] (Ac-[dK][dL][dT]WQELYQLKYKGI-NH2)
  effect of the N-terminal D-amino acids on stability in human serum (versus QK): unaffected

Source: article PMC9607104, “Switching the N-Capping Region from all-L to all-D Amino Acids in a VEGF Mimetic Helical Peptide” (Molecules, 2022)
